Here are results for six compounds from ChEMBL document CHEMBL1129730, “Mechanistic studies on the inactivation of papain by epoxysuccinyl inhibitors” (J Med Chem, 1996).

Experiment [1] has as its target T1, Papain (Carica papaya) (UniProt P00784).
T1 sequence (whole entry): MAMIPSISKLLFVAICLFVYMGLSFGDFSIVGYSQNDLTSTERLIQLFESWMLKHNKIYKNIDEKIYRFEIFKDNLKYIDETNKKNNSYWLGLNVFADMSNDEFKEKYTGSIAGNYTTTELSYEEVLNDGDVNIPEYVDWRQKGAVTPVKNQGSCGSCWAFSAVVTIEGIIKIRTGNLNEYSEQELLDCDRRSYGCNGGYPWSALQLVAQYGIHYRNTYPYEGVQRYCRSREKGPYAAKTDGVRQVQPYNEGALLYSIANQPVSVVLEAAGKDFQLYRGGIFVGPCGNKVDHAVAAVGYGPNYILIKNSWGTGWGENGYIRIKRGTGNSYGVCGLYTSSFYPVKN
The experiment is described as follows: Kinetic constant First order rate of inactivation (K3) for the inhibition of papain conducted in 0.1 M phosphate, pH 6.8, at 30 degree C.

The target in the next experiment is T2, Papain (Carica papaya, UniProt P00784).
T2 sequence (P00784 whole entry): T1 sequence (whole entry)
In words: Kinetic constant Apparent binding constant (Ki`) for the inhibition of papain conducted in 0.1 M phosphate, pH 6.8, at 30 degree C.

For experiment [2], the target named is T1, Papain (Carica papaya). In words: Inhibition of papain depend on Acid dissociation constant of the protein Papain.

Values joined by “and” are separate entries in the source; they are usually repeats but may differ in a detail not shown here. Identical values can stand only once.

Turning to `CC(C)CCNC(=O)[C@H](CC(C)C)NC(=O)[C@H]1O[C@@H]1C(=O)NO`, the k3 at Papain (Carica papaya) [1] was found to be 0.67 s⁻¹. Further, on Papain, the Ki was found to be 6.6 µM.
Consider `CC(=O)[C@H]1O[C@@H]1C(=O)N[C@@H](CC(C)C)C(=O)NCCC(C)C`, for which the k3 at Papain (Carica papaya) [1] came out at 0.47 s⁻¹. Moreover, the Ki on Papain turned out to be 170 µM.
`CC(C)CCNC(=O)[C@H](CC(C)C)NC(=O)[C@H]1O[C@@H]1C(=O)O` [E-64C]: on Papain (Carica papaya) [2], the pKa is 3.93 and 4.09. Besides, the k3 on Papain (Carica papaya) [1] was 0.71 s⁻¹. Moreover, the Ki on Papain came out at 2.4 µM.
In the case of `CC(C)CCNC(=O)[C@H](CC(C)C)NC(=O)[C@H]1O[C@@H]1CO`, on Papain (Carica papaya) [1], the k3 is 0.019 s⁻¹. Moreover, the Ki at Papain turned out to be 4400 µM.
The compound `CC(C)CCNC(=O)[C@H](CC(C)C)NC(=O)[C@H]1O[C@@H]1C(N)=O` displayed a k3 on Papain (Carica papaya) [1] of 0.35 s⁻¹. In addition, the Ki on Papain was 51 µM.
The like results for `CCOC(=O)[C@H]1O[C@@H]1C(=O)N[C@@H](CC(C)C)C(=O)NCCC(C)C` [ALOXISTATIN] were, in that order, 0.059 s⁻¹ and 52 µM.
